Measured values: PubChem BioAssay AID790 (SRMLSC, 2007)
Active and inactive are the calls of the source. How the calls were made is not given here.

Experiments:
[1] = growth inhibition of yeast vps1Δ mutant, dose response, S. cerevisiae, background strain comparison (AID 790); details: S. cerevisiae vps1Δ mutant growth inhibition; measured here: background strain growth inhibition
[2] = tested on: S. cerevisiae vps1Δ mutant growth inhibition; assay: as above

Row | SMILES | IC50 [1] [µM] | IC50 [2]
1 | O=[N+]([O-])c1ccc(N/N=C/c2c[nH]c3ccccc23)c(S(=O)(=O)Nc2ccc(Cl)cc2)c1 | 2.5 | 2.47 µM
2 | CCc1cc(=O)oc2cc(C)c(CN3CCCC(C)C3)c(O)c12 (configuration not stated) | > 10 | > 10 µM (inactive)
3 | Cc1ccc(S(=O)(=O)NC(CC(C)C)C(=O)Oc2ccc3c4c(c(=O)oc3c2)CCC4)cc1 (configuration not stated) | > 10 | > 10 µM (inactive)
4 | CCOC(=O)COc1ccccc1C1Nc2ccccc2C(=O)N1c1cccc(Cl)c1 (configuration not stated) | > 10 | > 10 µM (inactive)
5 | CC(=O)c1ccc(N2CCN(C(=O)c3ccc(Br)cc3)CC2)c(F)c1 | 6.58 | 1.52 µM
6 | CCOCCCNC(=O)c1cc2sc(Cl)cc2n1CC | > 10 | > 10 µM (inactive)
7 | CCCCSCCCNC(=O)Nc1cccc(OC)c1 | > 10 | > 10 µM (inactive)
8 | O=C(Nc1nnc(-c2ccc3c(c2)CCCC3)o1)c1ccccc1Cl | 10.7 | 1.58 µM
9 | COc1ccccc1N1CCN(C2CCN(C(=O)c3cc(OC)c(OC)c(OC)c3)CC2)CC1 | > 10 | > 10 µM (inactive)
10 | Cc1ccc(OCC(O)CN2CCN(Cc3ccc4c(c3)OCO4)CC2)c(C)c1 (configuration not stated) | > 10 | > 10 µM (inactive)
11 | COc1cc2[nH]c(=S)n(CCCN3CCOCC3)c(=O)c2cc1OC | > 10 | > 10 µM (inactive)
12 | COc1ccc(N2CCN(c3oc(-c4ccco4)nc3C#N)CC2)cc1 | > 10 | > 10 µM (inactive)
13 | O=C(C1CCN(S(=O)(=O)c2cccs2)CC1)N1CCCCCC1 | > 10 | > 10 µM (inactive)
14 | O=C1CC(N2CCN(c3ccc(Cl)c(Cl)c3)CC2)C(=O)N1 (configuration not stated) | > 10 | 15.3 µM
15 | O=C(OCn1ncc(Cl)c(Cl)c1=O)c1ccccc1Cl | 16.6 | 5.41 µM
16 | CCCCCOc1ccc(CN2CCOCC2)cc1Cl | > 10 | > 10 µM (inactive)
17 | Cc1nnc(-c2cccc(Br)c2)c2cn(-c3ccccc3Cl)nc12 | 25.9 | 2.01 µM
18 | Cc1ccc(C(=O)NCc2occc2C(=O)O)o1 | > 10 | > 10 µM (inactive)
19 | Cc1cc(C)nc(NC(=O)CSc2nn(C)c(=S)s2)n1 | > 10 | > 10 µM (inactive)
20 | Cc1ccc(CSc2nc3ccccc3cc2C=O)cc1 | 2.1 | 1.99 µM
21 | Cc1ccc(S(=O)(=O)N(CC(=O)N2CCC(C(N)=O)CC2)c2cccc(C(F)(F)F)c2)cc1 | > 10 | > 10 µM (inactive)

Row | SMILES | IC50 [1] [µM] | IC50 [2]
22 | COc1ccc(Cl)cc1NC(=O)C(C)N1CCN(C/C=C/c2ccccc2)CC1 (configuration not stated) | 15 | > 10 µM (inactive)
23 | O=S(=O)(c1cnccc1N1CCN(/N=C/c2ccc(Br)cc2)CC1)N1CCCCC1 | > 10 | > 10 µM (inactive)
24 | C=C(C)COc1ccc(-c2ncncc2Oc2ccc(OC)cc2)c(O)c1 | > 10 | > 10 µM (inactive)
25 | NC(=O)c1ccsc1NC(=O)c1nc(-c2ccccc2)n(-c2ccccc2)n1 | > 10 | > 10 µM (inactive)
26 | COCCNc1cc(C)nc2c3c(C)cc(C)nc3nn12 | > 10 | > 10 µM (inactive)
27 | CCOC(=O)Cc1c(C)c2ccc(N(CC)CC)cc2oc1=O | > 10 | > 10 µM (inactive)
28 | O=C1OCC2=C1C(c1ccc(F)cc1)Sc1ccccc1N2 (configuration not stated) | > 10 | 14.4 µM
29 | O=C(NC1CCN(Cc2ccccc2)CC1)C1COc2ccccc2O1 (configuration not stated) | > 10 | > 10 µM (inactive)
30 | CCOC(=O)c1c(NC(=O)CN2CCCCC2)sc2c1CCC(C=O)=C2Cl | > 10 | > 10 µM (inactive)
31 | O=C(O)Cn1c(SCCOc2ccccc2F)nc2ccccc21 | > 10 | > 10 µM (inactive)
32 | Cc1ccn2cc(-c3nonc3C)cc2c1 | > 10 | > 10 µM (inactive)
33 | CC1CC(C)CN(CC(C)(C)NS(=O)(=O)c2ccc(Cl)cc2)C1 (configuration not stated) | > 10 | > 10 µM (inactive)
34 | O=C1NC2(Nc3ccccc31)C(=O)Nc1ccccc12 (configuration not stated) | > 10 | > 10 µM (inactive)
35 | COc1ccc(N2CCN(C(=O)CCNS(=O)(=O)c3ccc(Br)s3)CC2)cc1 | > 10 | > 10 µM (inactive)
36 | COc1cccc(NC(=O)c2ccc(CN3CCN(c4ccccc4)CC3)cc2)c1 | > 10 | > 10 µM (inactive)
37 | COc1ccc2nc(NCCCNC(=O)c3cc(OC)c(OC)c(OC)c3)c(C#N)cc2c1 | > 10 | > 10 µM (inactive)
38 | Cc1ccc(NS(=O)(=O)c2cc(C(=O)N3CCOCC3)ccc2C)cc1 | > 10 | > 10 µM (inactive)
39 | CCCn1c(SCc2cc(=O)oc3ccc4ccccc4c23)n[nH]c1=O | > 10 | > 10 µM (inactive)
40 | Cc1ccc(-c2csc3nnc(SCC(=O)Nc4cccc(C)n4)n23)cc1 | > 10 | > 10 µM (inactive)
41 | CCOCCCNC(=O)C1CCN(C(=O)N(C)C)CC1 | > 10 | > 10 µM (inactive)
